In patent US20090180956A1, “DIAGNOSTIC FOR EVALUATING GASTRIC EVACUATION FUNCTION AND/OR SMALL INTESTINAL ABSORPTION FUNCTION” (priority 2006, published 2009):
Read-outs that look alike come from different tables or passages of the source.

Assays:
[1] = 2 mg/ml/kg into the duodenum
Procedure: Overnight-fasted Wistar male rats (8 week-old; Nippon Charles River) were subjected to a laparotomy under anesthesia and treated as follows: (1) ligated at 3 cm from the pylorus (n=1), (2) ligated at 6 cm from the pylorus (n=1), and (3) not ligated (no treatment) (n=2).
[1,4-^13C]-succinic acid (ICON) was administered into the duodenum upstream of the ligation at 2 mg/ml/kg. The breath after the administration was collected.
(§1) Briefly, the breath was collected at a rate of about 100 to 300 ml/min using a stroke pump (Variable Stroke Pump VS-500; Shibata Kagaku Kogyo), and the CO2 concentration therein was maintained at about 3%. A Perma Pure Drier (MD-050-12P; Perma Pure INC.) was set between the rat holder and the stroke pump to remove moisture from the breath. When the CO2 concentration was stabilized, the rat under anesthesia was subjected to a laparotomy. After ligation of the pylorus, [1,4-^13C]-succinic acid solution was injected into the duodenum with an injection syringe (1 ml) to thereby achieve administration into the duodenum. A breath sample ([…]) collected with the syringe was sealed in a vacuum vial (10 ml) and subjected to automated analysis by GC-MS (Breath MAT) [FinniganMAT]. Δ^13C (‰) was calculated from δ^13C values which are ^13C values of the breath sample (i.e. differences from the standard substance PDB) using the following formula.
Δ^13C (‰)=(δ^13C)t min−(δ^13 C) 0 min (Formula 1)
• Apparatus: Breath MAT plus (Finnigan) • Carrier gas: He • Measured ions: m/z=44, 45, 46

[2] = 2 mg/ml/kg into the duodenum; remark: listed apart in the source
Procedure: as §1
Falling out of small intestinal villi was induced in Wistar male rats (9 week-old; n=4; Nippon Charles River) by repeatedly injecting injectable methotrexate (MTX; Takeda Chemical Industries) dissolved in physiological saline between the back and the skull subcutaneously at 2.5 mg/kg/day (see J. Nutr. Vol. 126, p. 2519 (1996); Scand. J. Gastroenterol. Vol. 39 p. 1015 (2004)). The conditions of the repeated administration were 3 day administration, 2 day interval and 3 day administration (total administration period: 6 days) (MTX administration group; n=4). Non-administration group (n=2) was also tested as control group.
On day 9 after the start of MTX administration, [1,4-^13C]-succinic acid (ICON) was administered into the duodenum of overnight-fasted rats under anesthesia at 2 mg/ml/kg to perform a breath test.

[3] = 4 mg/ml/kg femoral vein
Procedure: (§2) Briefly, STZ was administered to 2-day postnatal rats subcutaneously at a dose of 90 mg/kg. STZ was dissolved in citrate buffer (pH 4.5) in advance, and administration was completed within 5 minutes after the dissolving. Two days thereafter, a blood sample was collected from the heart and subjected to measurement of casual plasma glucose with Terumo Mediace (blood glucose measuring set). Individuals showing a level of 275 mg/dl or more were selected.
(§3) The time course of the increase ratio of ^13C concentration (Δ^13C (‰)) in exhaled CO2 after administration was examined for 20 minutes, and plotted every 5 minutes.

[4] = 13C-labeled sodium acetate breath test, diabetic model rats (nSTZ group) versus control group; settings: 10 mg/ml/kg femoral vein
Procedure: as §2, §3

[5] = rat, in vivo, 2000 mg/kg; cited from earlier work

O=[13C](O)CC[13C](=O)O [[1,4-^13C]-succinic acid]
increase ratio of 13C concentration (Δ13C) in exhaled CO2 ([1]; not ligated rats, at 6 minutes): 130 ‰ | increase ratio of 13C concentration (Δ13C) in exhaled CO2 ([1]; not ligated rats, at 15 minutes): 95 ‰ | increase ratio of 13C concentration (Δ13C) in exhaled CO2 ([1]; rat ligated at 3 cm from the pylorus, at 4 minutes): 14 ‰ | increase ratio of 13C concentration (Δ13C) in exhaled CO2 ([1]; rat ligated at 3 cm from the pylorus, at 6 minutes): 30 ‰ | increase ratio of 13C concentration (Δ13C) in exhaled CO2 ([1]; rat ligated at 3 cm from the pylorus, at 16 minutes): 71 ‰ | increase ratio of 13C concentration (Δ13C) in exhaled CO2 ([1]; rat ligated at 6 cm from the pylorus, at 4 minutes): 33 ‰ | increase ratio of 13C concentration (Δ13C) in exhaled CO2 ([1]; rat ligated at 6 cm from the pylorus, at 6 minutes): 57 ‰ | increase ratio of 13C concentration (Δ13C) in exhaled CO2 ([1]; rat ligated at 6 cm from the pylorus, at 16 minutes): 96 ‰ | increase ratio of 13C concentration (Δ13C) in exhaled CO2 ([2]; MTX administration group, at 15 minutes): 68±37 ‰ | increase ratio of 13C concentration (Δ13C) in exhaled CO2 ([2]; control group (MTX non-administration), at 10 minutes): 154 ‰ | increase ratio of 13C concentration (Δ13C) in exhaled CO2 ([2]; control group (MTX non-administration), at 20 minutes): 81 ‰ | difference in Δ13C between control group and nSTZ group ([3]; 20 minutes breath test): no difference was observed | increase ratio of 13C concentration (Δ13C) in exhaled CO2 ([3]; control group, at 5 minutes): 193±20 ‰ | increase ratio of 13C concentration (Δ13C) in exhaled CO2 ([3]; control group, at 20 minutes): 99±4 ‰ | increase ratio of 13C concentration (Δ13C) in exhaled CO2 ([3]; nSTZ group, at 5 minutes): 202±28 ‰ | increase ratio of 13C concentration (Δ13C) in exhaled CO2 ([3]; nSTZ group, at 20 minutes): 93±4 ‰

C[13C](=O)[O-].[Na+] [[1-^13C]-sodium acetate]
increase ratio of 13C concentration (Δ13C) in exhaled CO2 ([4]; control group, at 5 minutes): 154±11 ‰ | increase ratio of 13C concentration (Δ13C) in exhaled CO2 ([4]; control group, at 20 minutes): 153±5 ‰ | increase ratio of 13C concentration (Δ13C) in exhaled CO2 ([4]; nSTZ group, at 5 minutes): 214±30 ‰ | increase ratio of 13C concentration (Δ13C) in exhaled CO2 ([4]; nSTZ group, at 20 minutes): 133±2 ‰ | difference in Δ13C between control group and nSTZ group ([4]; values at 5 minutes and at 20 minutes): Significant difference (p<0.005)

O=C(O)CCC(=O)O [disodium succinate hexahydrate]
abnormalities in single administration toxicity test [5]: does not cause abnormalities
